Where two headings read alike, the source gives them in different places. *1 amine or outer side, *2 acyl side, *3 side chain or, on linkers, in order; H or OH if unused. Where a SMILES comes first, the peptide text is derived from it. Bridges are numbered along the chain shown (N, C = ends). [ ]: non-standard residue; d: D form. The star is where a group is joined. hPhe(3,5-F2-4-CF3) = N[C@@H](CCc1cc(F)c(C(F)(F)F)c(F)c1)C(=O)O; hPhe(3-Cl-4-CF3) = N[C@@H](CCc1ccc(C(F)(F)F)c(Cl)c1)C(=O)O; NPrPhe(4-CF3) = CCCN[C@@H](Cc1ccc(C(F)(F)F)cc1)C(=O)O; NMeAbu(4,4,4-F3) = CN[C@@H](CC(F)(F)F)C(=O)O; X7 = CCN([C@H](C(=O)[*:2])C1CCCC1)[*:1]; NMeGly(cPent) = CN[C@H](C(=O)O)C1CCCC1; Pro(4,4-F2) = O=C(O)[C@@H]1CC(F)(F)CN1; NMeGly(cBu) = CN[C@H](C(=O)O)C1CCC1; NMeD = CN[C@@H](CC(=O)O)C(=O)O; Ac4c(3-oxa) = NC1(C(=O)O)COC1; NMeL = CN[C@@H](CC(C)C)C(=O)O; Morpholide = C1CN(*)CCO1; NMeA = CN[C@@H](C)C(=O)O; Ac5c = NC1(C(=O)O)CCCC1; Aze = O=C(O)[C@@H]1CCN1; Sar = CNCC(=O)O
How the values were obtained:
[1] = molecular target: GDP-bound KRAS wild-type protein (Homo sapiens, UniProt P01116); test: Binding to KRAS by surface plasmon resonance (SPR), Single Cycle Kinetics; conditions: GDP-bound KRAS wild-type protein, read-out: KRAS KD
[2] = molecular target: GDP-bound NRAS wild-type protein (Homo sapiens, UniProt P01111); test: Binding to NRAS by surface plasmon resonance (SPR), Single Cycle Kinetics; conditions: for NRAS/KRAS (ratio of KD value with respect to NRAS to KD value with respect to KRAS) / NRAS/KRAS (ratio of KD value for NRAS to KD value for KRAS): SPR, GDP-bound NRAS wild-type protein vs GDP-bound KRAS wild-type protein; for NRAS/KRAS (ratio of KD value with respect to GDP-bound NRAS wild-type protein to KD value with respect to KRAS): SPR KD ratio NRAS/KRAS, class symbols
[3] = molecular target: GDP-bound HRAS wild-type protein (Homo sapiens, UniProt P01112); test: Binding to HRAS by surface plasmon resonance (SPR), Single Cycle Kinetics; conditions: for HRAS/KRAS (ratio of KD value with respect to HRAS to KD value with respect to KRAS) / HRAS/KRAS (ratio of KD value for HRAS to KD value for KRAS): SPR, GDP-bound HRAS wild-type protein vs GDP-bound KRAS wild-type protein; for HRAS/KRAS (ratio of KD value with respect to GDP-bound HRAS wild-type protein to KD value with respect to KRAS): SPR KD ratio HRAS/KRAS, class symbols
[4] = SPR Single Cycle Kinetics, 1:1 binding model

GDP-bound NRAS wild-type protein, sequence (P01111 whole entry): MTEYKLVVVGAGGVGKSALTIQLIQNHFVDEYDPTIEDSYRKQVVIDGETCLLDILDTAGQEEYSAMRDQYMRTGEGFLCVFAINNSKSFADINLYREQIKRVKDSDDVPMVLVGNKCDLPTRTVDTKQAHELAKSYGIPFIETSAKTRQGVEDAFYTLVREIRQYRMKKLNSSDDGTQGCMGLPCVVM
GDP-bound HRAS wild-type protein, sequence (P01112 whole entry): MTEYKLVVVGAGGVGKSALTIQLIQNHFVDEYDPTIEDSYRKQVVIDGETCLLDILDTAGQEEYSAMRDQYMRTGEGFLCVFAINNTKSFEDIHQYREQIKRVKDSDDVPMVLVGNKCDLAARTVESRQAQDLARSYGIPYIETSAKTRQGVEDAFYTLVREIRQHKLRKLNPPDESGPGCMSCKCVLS
GDP-bound KRAS wild-type protein, sequence (P01116 whole entry): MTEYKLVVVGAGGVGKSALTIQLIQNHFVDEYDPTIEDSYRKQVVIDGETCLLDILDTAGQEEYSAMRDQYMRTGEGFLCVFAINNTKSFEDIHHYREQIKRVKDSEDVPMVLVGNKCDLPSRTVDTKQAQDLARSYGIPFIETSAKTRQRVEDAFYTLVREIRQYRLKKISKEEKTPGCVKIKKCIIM

| SMILES | Kd [1, 4] [nM] | NRAS/KRAS (ratio of KD value with respect to NRAS to KD value with respect to KRAS) [2] | HRAS/KRAS (ratio of KD value with respect to HRAS to KD value with respect to KRAS) [3] | NRAS/KRAS (ratio of KD value for NRAS to KD value for KRAS) [2] | HRAS/KRAS (ratio of KD value for HRAS to KD value for KRAS) [3] | NRAS/KRAS (ratio of KD value with respect to GDP-bound NRAS wild-type protein to KD value with respect to KRAS) [2] | HRAS/KRAS (ratio of KD value with respect to GDP-bound HRAS wild-type protein to KD value with respect to KRAS) [3] | Kd ([1]; SPR, Single Cycle Kinetics) [nM] |
| --- | --- | --- | --- | --- | --- | --- | --- | --- |
| CC[C@H](C)[C@@H]1NC(=O)[C@H](CC(C)C)N(C)C(=O)C[C@@H](C(=O)N2CCOCC2)N(C)C(=O)[C@H](C2CCCC2)N(C)C(=O)C2(CCCC2)NC(=O)[C@@H]2C[C@H](OC)CN2C(=O)[C@H](CCc2cc(F)c(C(F)(F)F)c(F)c2)NC(=O)CN(C)C(=O)[C@H](Cc2ccc(C(F)(F)F)cc2)N2CCCC[C@@H](C2=O)N(C)C(=O)CN(C)C1=O [PP0557] | 0.11 | B (a compound having 3 or more and less than 10 is denoted as B) | B (a compound having 3 or more and less than 10 is denoted as B) |  |  |  |  |  |
| CCCN1C(=O)CN(C)C(=O)CN(C)C(=O)[C@H]([C@@H](C)CC)NC(=O)[C@H](CC(C)C)N(C)C(=O)C[C@@H](C(=O)N(C)C)N(C)C(=O)[C@H](C2CCCC2)N(C)C(=O)C2(COC2)NC(=O)[C@@H]2CCCN2C(=O)[C@H](CCc2cc(F)c(C(F)(F)F)c(F)c2)NC(=O)CN(C)C(=O)[C@@H]1Cc1ccc(C(F)(F)F)cc1 [PP0744] ([NMeL]I[Sar][Sar][NPrPhe(4-CF3)][Sar][hPhe(3,5-F2-4-CF3)]P[Ac4c(3-oxa)][NMeGly(cPent)][NMeD]-NMe2; lactam N-11) | 0.06 | B (a compound having 3 or more and less than 10 is denoted as B) | B (a compound having 3 or more and less than 10 is denoted as B) |  |  |  |  |  |
| CCCN1C(=O)[C@@H]2CCN2C(=O)[C@H](C)N(C)C(=O)[C@H]([C@@H](C)CC)NC(=O)[C@H](C2CCC2)N(C)C(=O)C[C@@H](C(=O)N2CCOCC2)N(C)C(=O)[C@H](C2CCCC2)N(C)C(=O)C2(CCCC2)NC(=O)[C@@H]2CC(F)(F)CN2C(=O)[C@H](CCc2ccc(C(F)(F)F)c(Cl)c2)NC(=O)CN(C)C(=O)[C@@H]1Cc1ccc(C(F)(F)F)cc1 [PP0204] ([NMeGly(cBu)]I[NMeA][Aze][NPrPhe(4-CF3)][Sar][hPhe(3-Cl-4-CF3)][Pro(4,4-F2)][Ac5c][NMeGly(cPent)][NMeD]-Morpholide; lactam N-11) | 0.21 |  |  | C (A compound having a KD ratio of 0.1 or more and less than 3 is denoted as C) | C (A compound having a KD ratio of 0.1 or more and less than 3 is denoted as C) |  |  |  |
| CCC[C@H]1C(=O)N[C@@H]([C@@H](C)CC)C(=O)N(C)CC(=O)N(C)[C@H]2C/C=C\CCN(C2=O)[C@@H](Cc2ccc(C(F)(F)F)cc2)C(=O)N(C)CC(=O)N[C@@H](CCc2ccc3c(C)cn(C)c3c2)C(=O)N2C[C@H](OCC)C[C@H]2C(=O)NC2(CC(C)(C)C2)C(=O)N(C)[C@@H](C(CC)CC)C(=O)N(C)[C@H](C(=O)N(C)C)CC(=O)N1C [PP2908] | 1.5 |  |  |  |  | AA (a compound having 20 or more is denoted as AA) | A (a compound having 10 or more and less than 20 is denoted as A) |  |
| C=CC[C@H]1C(=O)N[C@@H]([C@@H](C)CC)C(=O)N(C)CC(=O)N(C)[C@H]2CCCCN(C2=O)[C@@H](Cc2ccc(C(F)(F)F)cc2)C(=O)N(C)CC(=O)N[C@@H](CCc2cc(F)c(C(F)(F)F)c(F)c2)C(=O)N2C[C@H](OCC)C[C@H]2C(=O)N[C@](C)(CC=C)C(=O)N(C)[C@@H](C2CCCC2)C(=O)N(C)[C@H](C(=O)N2CCOCC2)CC(=O)N1C [PP0874] |  |  |  | C (A compound having a KD ratio of 0.1 or more and less than 3 is denoted as C) | B (a compound having 3 or more and less than 10 is denoted as B) |  |  | 0.1 |
| CCCN1C(=O)[C@@H]2CCN2C(=O)[C@H](C)N(C)C(=O)[C@H]([C@@H](C)CC)NC(=O)[C@H](CC(C)C)N(C)C(=O)C[C@@H](C(=O)N(C)C)N(C)C(=O)[C@H](C2CCCC2)N(C)C(=O)C2(CCCC2)NC(=O)[C@@H]2CC(F)(F)CN2C(=O)[C@H](CCc2ccc(C(F)(F)F)c(Cl)c2)NC(=O)CN(C)C(=O)[C@@H]1Cc1ccc(C(F)(F)F)cc1 [PP0436] ([NMeL]I[NMeA][Aze][NPrPhe(4-CF3)][Sar][hPhe(3-Cl-4-CF3)][Pro(4,4-F2)][Ac5c][NMeGly(cPent)][NMeD]-NMe2; lactam N-11) | 0.054 | C (A compound having a KD ratio of 0.1 or more and less than 3 is denoted as C) | C (A compound having a KD ratio of 0.1 or more and less than 3 is denoted as C) |  |  |  |  |  |
| CCCN1C(=O)CN(C)C(=O)CN(C)C(=O)[C@H]([C@@H](C)CC)NC(=O)[C@H](CC(F)(F)F)N(C)C(=O)C[C@@H](C(=O)N2CCOCC2)N(C)C(=O)[C@H](C2CCCC2)N(C)C(=O)C2(CCCC2)NC(=O)[C@@H]2CCCN2C(=O)[C@H](CCc2ccc(C(F)(F)F)c(Cl)c2)NC(=O)CN(C)C(=O)[C@@H]1Cc1ccc(C(F)(F)F)cc1 [PP0187] ([NMeAbu(4,4,4-F3)]I[Sar][Sar][NPrPhe(4-CF3)][Sar][hPhe(3-Cl-4-CF3)]P[Ac5c][NMeGly(cPent)][NMeD]-Morpholide; lactam N-11) | 0.19 |  |  | B (a compound having 3 or more and less than 10 is denoted as B) | C (A compound having a KD ratio of 0.1 or more and less than 3 is denoted as C) |  |  |  |
| CC[C@H](C)[C@@H]1NC(=O)[C@H](CC(C)C)N(C)C(=O)C[C@@H](C(=O)N2CCOCC2)N(C)C(=O)[C@H](C2CCCC2)N(C)C(=O)C2(CCCC2)NC(=O)[C@@H]2CCCN2C(=O)[C@H](CCc2ccc(C(F)(F)F)c(Cl)c2)NC(=O)CN(C)C(=O)[C@H](C2CCCC2)N(CC)C(=O)[C@@H]2CCN2C(=O)[C@H](C)N(C)C1=O [PP0003] ([NMeL]I[NMeA][Aze][X7][Sar][hPhe(3-Cl-4-CF3)]P[Ac5c][NMeGly(cPent)][NMeD]-Morpholide; lactam N-11) | 2 |  |  | C (A compound having a KD ratio of 0.1 or more and less than 3 is denoted as C) | C (A compound having a KD ratio of 0.1 or more and less than 3 is denoted as C) |  |  |  |
| CCO[C@@H]1C[C@H]2C(=O)NC3(CC(C)(C)C3)C(=O)N(C)[C@@H](C3CCCC3)C(=O)N(C)[C@H](C(=O)N(C)CC)CC(=O)N(C)[C@@H](CC(C)C)C(=O)N[C@@H]([C@@H](C)CC)C(=O)N(C)CC(=O)N(C)[C@H]3C/C=C\CCN(C3=O)[C@@H](Cc3ccc(C(F)F)cc3)C(=O)N(C)CC(=O)N[C@@H](CCc3ccc(Cl)c(Cl)c3)C(=O)N2C1 [PP2827] | 0.38 |  |  |  |  | A (a compound having 10 or more and less than 20 is denoted as A) | B (a compound having 3 or more and less than 10 is denoted as B) |  |
| CCO[C@@H]1C[C@H]2C(=O)NC3(CCC3)C(=O)N(C)[C@@H](C3CCCCC3)C(=O)N(C)[C@H](C(=O)N(C)C)CC(=O)N(C)[C@@H](CC)C(=O)N[C@@H]([C@@H](C)CC)C(=O)N(C)CC(=O)N(C)[C@H]3C/C=C\CCN(C3=O)[C@@H](Cc3ccc(C(F)(F)F)cc3)C(=O)N(C)CC(=O)N[C@@H](CCc3cc(F)c(C(F)(F)F)c(F)c3)C(=O)N2C1 [PP1086, (2S,8S,12R,14S,20S,23S,27S,30S,36S,38Z)-20-cyclohexyl-8-[2-[3,5-difluoro-4-(trifluoromethyl)phenyl]ethyl]-12-ethoxy-27-ethyl-N,N,4,19,22,26,32,35-octamethyl-30-[(1S)-1-methylpropyl]-3,6,9,15,18,21,25,28,31,34,42-undecaoxo-2-[[4-(trifluoromethyl)phenyl]methyl]spiro[1,4,7,10,16,19,22,26,29,32,35-undecazatricyclo[34.5.1.0^10,14]dotetracont-38-ene-17,1′-cyclobutane]-23-carboxamide] |  |  |  | AA (a compound having 20 or more is denoted as AA) | A (a compound having 10 or more and less than 20 is denoted as A) |  |  | 0.13 |
| CC[C@H](C)[C@@H]1NC(=O)[C@H](C)N(C)C(=O)C[C@@H](C(=O)N(C)C)N(C)C(=O)[C@H](C2CCCC2)N(C)C(=O)C2(CCC2)NC(=O)[C@@H]2CC(F)(F)CN2C(=O)[C@H](CCc2cc(F)c(C(F)(F)F)c(F)c2)NC(=O)CN(C)C(=O)[C@H](Cc2ccc(C(F)(F)F)cc2)N2CCCC[C@@H](C2=O)N(C)C(=O)CN(C)C1=O [PP0584] | 0.0077 | C (A compound having a KD ratio of 0.1 or more and less than 3 is denoted as C) | C (A compound having a KD ratio of 0.1 or more and less than 3 is denoted as C) |  |  |  |  |  |
| CCCN1C(=O)[C@@H]2CCN2C(=O)CN(C)C(=O)[C@H]([C@@H](C)CC)NC(=O)[C@H](CC(C)C)N(C)C(=O)C[C@@H](C(=O)N(C)C)NC(=O)[C@H](C2CCCC2)N(C)C(=O)C2(CCCC2)NC(=O)[C@@H]2CC(F)(F)CN2C(=O)[C@H](CCc2ccc(C(F)(F)F)c(Cl)c2)NC(=O)CN(C)C(=O)[C@@H]1Cc1ccc(C(F)(F)F)cc1 [PP0387] ([NMeL]I[Sar][Aze][NPrPhe(4-CF3)][Sar][hPhe(3-Cl-4-CF3)][Pro(4,4-F2)][Ac5c][NMeGly(cPent)]D-NMe2; lactam N-11) | 0.54 |  |  | C (A compound having a KD ratio of 0.1 or more and less than 3 is denoted as C) | B (a compound having 3 or more and less than 10 is denoted as B) |  |  |  |
